Experiments:
[1] = system: Carboxylesterase from porcine liver; assay: Hydrolysis of prodrugs by porcine liver carboxylesterase (CES), LC/MS; conditions: for SA relative to 5-FCPal: CES hydrolysis
Procedure: High purity Capecitabine (as solid crystals) was purchased from Xingcheng Chemphar Co., Ltd, P.R.China. […] Millipore water was used to prepare the prodrugs solutions with appropriate concentrations, while phosphate buffered saline (pH 7.4, PBS) was used in the preparation of different concentrations of enzyme.
Stock solution of Capecitabine was prepared by dissolving pure white Capecitabine into warm water. 1 mg/mL of Capecitabine solution was then further obtained by diluting the stock solution with milli-Q water. […] Prior to the experiments, prodrug particles were incubated at 37° C. for at least two weeks to achieve the equilibrium state of certain phases.
Stock solution of 10 mg/mL carboxylesterase solution was prepared by weighting 10 mg of powder enzyme in 1 mL of PBS buffer and shaking gently by hand. The concentration of the enzyme solution was adjusted to 1 mg/mL and 0.01 mg/mL by dilution of the stock solution. These solutions were used for the enzymatic hydrolysis of the prodrugs and Capecitabine respectively. […]
To measure the rate of the enzymatic reaction precisely, the starting substrate and the enzyme solution were mixed for a defined time by rapidly mixing together the two stock solutions and shaking. The time at which enzyme solution was added was taken as time zero for the hydrolysis reaction. The mixture was maintained at 37° C. throughout the experiment. The concentration of the hydrolysis product was then measured at various times using LC/MS (Finnigan LCQ Series, Thermo Scientific, USA). The time at which the sample was injected into the LC column was taken to be the reaction time for such sample. The hydrolysis progress curve showing the decrease in the concentration of original substrate was subsequently plotted.
The concentrations of prodrugs were determined using Thermo Finnigan LC/MS equipped with an atmospheric pressure chemical ionization (APCI) probe in positive ion mode. 10 μL of sample withdrawn from the reaction solution was injected directly into a Platinum EPS C18 100 Å 5u LC column with the length of 150 mm and internal diameter of 4.6 mm (Alltech, Australia). A mixture of 30% LCMS grade water and 70% Methanol was employed as mobile phase with the flow rate of 1 ml/min. The sample after the column separation was eluted to APCI source (MS full positive scan) to determine the molecular weight of the substrates. The vaporizer temperature of the APCI probe was set at 450° C. and the capillary temperature was operated at 200° C. The sample temperature was well maintained at 37° C. during the entire measurement by incubating the sample in the temperature controlled auto-sampler. Data were acquired and processed with Xcalibur Quan chromatography software.
The decreased concentration of substrate and the increased hydrolysis product 5′-dFCyd were detected based on the different retention time on chromatogram and m/z value in the MS positive scan. […] The decreased/increased ratio of reactant/5′dFCyd was determined by comparing the integration areas of the corresponding peaks.
The enzyme hydrolysis reaction was plotted as the logarithm of the ratio of original prodrug concentration to the decreased concentration of prodrug at a certain incubation time as a function of reaction time (Ln [S]0/[S] vs T).
In order to compare the enzymatic activity for each individual substrate to CES, we calculate a global reaction rate expressed as a specific activity (SA) (μmol/min/mg enzyme): SA=Δ[S]/(Δt·[CCES])
Here, as is common when discussing the SA, [CCES] is the enzyme concentration in mg/ml, Δ[S] is the substrate concentration change in μmol/ml during Δt time.

[2] = Particle size distribution of dispersions by dynamic light scattering; type: physicochemical; conditions: for mean (average) particle size / particle size distribution: DLS at 25° C., 5-FCPhy and 5-FCOle after membrane extrusion, 5-FCPal solid lipid particles; for Average Particle size: dispersions used in the hydrolysis study, physiological temperature
Procedure: BASF) equivalent to 10% (w/w) of neat amphiphile and absolute ethanol were weighed in a sample vial. […] These crude dispersions were then passed through a series of PC membranes from the size range from 1 um to 100 nm to obtain a more uniform size distribution for the particles. The equipment used for size control is a mini-extruder (Avanti Polar Lipids, USA). […] The final concentration of colloidosomes were determined by ultra performance liquid chromatography (UPLC) and then diluted to 1 mg/mL for use in the enzyme hydrolysis study The particle size distribution and morphology of the above suspensions were determined using the method as described herein by using zetasizer and cryo-TEM characterisation methods. Solid lipid particles of prodrug 5-FCPal were prepared using mechanical methods. […] The melted prodrug and poloxamer mixture was then transferred to 40 mL of pre-warmed water upon vigorous vortexing. The mixture was then sheared with a rough homogenizer (Ultra Turrax®, T18 Basic, IKA® Werke GmbH & Co. KG, Germany) at 14,000 rpm for 10 min. The resultant dispersion was further transferred to the ultrasonic benchtop cleaner for a few hours of ultra sonication. […] Determination of the particle size distribution of the colloidosome and solid lipid particle dispersions were carried out using a Zetasizer (nano zs, Malvern, England) equipped with a He—Ne Laser (4 mw, 633 nm) and an avalanche photodiode detector. […] […] The size distribution was recorded by intensity.

[3] = Lyotropic phase behaviour: water penetration scans, SAXS and XRD; type: physicochemical; conditions: for lyotropic phase behaviour in water penetration scans: concentration gradient from neat amphiphile to pure water, heated from room temperature; for Lyotropic phase behaviour: particle form in water at physiological temperature; for d-spacing: Lc
From the text: Lyotropic mesophase behaviour was studied using water penetration experiments. Neat amphiphile was placed on a glass slide, melted and cooled to facilitate sample homogenization and then covered with a glass cover slip. A few drops of Milli-Q water were then introduced to the edge of the cover slip which was drawn in by capillary action resulting in a concentration gradient from pure amphiphile in the centre to pure water around the edges of the cover slip. The generated mesophases were identified by their characteristic birefringent textures. Samples were then heated at 2° C./min from room temperature to ˜99° C. using an FP90 Linkam hotstage (Linkam Scientific Instruments, England). Thermotropic phase behaviour was also examined in the similar method but in the absence of water. The phases were viewed using an Olympus GX51 inverted polarising microscope (Olympus Australia Pty. Ltd, Australia) equipped with an Olympus C-5060 digital camera for image capture. All images were taken with 100× magnification unless elsewhere stated. […] The bulk phase of the binary amphiphile/water system was prepared by weighing the appropriate amount of sample and water in a sample vial. For those samples requiring pre-treatment, the samples were quickly melted in a pre-heated temperature controlled silicon-oil heating bath prior to addition of water. […] The prepared samples were analysed using an Anton-Paar SAXSess (Graz, Austria) with PANalytical PW3830 stand-alone X-ray generator operating at 40 kv, 50 mA with a sealed-tube Cu anode (λCu—Kα=0.154 nm). The samples were loaded into a paste cell sample holder at room temperature. […] Temperature control was via a TCU Temperature Control Unit (Anton Paar). […] The scattering results were recorded and analysed by the accompanied Anton Paar software.

[4] = Thermal decomposition by TGA; type: physicochemical; conditions: neat prodrug
[5] = system: 4T1 cells (mouse breast cancer cells); assay: 4T1 mouse breast tumour in BALB/c mice, oral daily dosing for 21 days (Example 6); type: in vivo
Procedure: 90 female BALB/c were injected with 5×10^4 4T1 cells (mouse breast cancer cells) in the second mammary fat pad on the right hand side. The tumour was allowed to form for 6 days prior to drug administration. On day 6, tumours were palpable in most of the mice. […] Mice were placed into groups of 6, and 15 different treatments were administered orally on a daily basis for 21 days.
The length and breadth of the tumours were measured and recorded on day 1, 4, 7, 14, and 21 of the drug administration. On Day 22, mice were euthanized. Blood was collected via cardiac puncture, followed by removal of the tumour, liver, spleen and kidney for histological analysis. Lungs were injected with indium ink prior to removal to allow for quantification of the number of lung metastasis in each animal.

[6] = system: 4T1 tumour; assay: Second 4T1 tumour study, daily dosing for 17 days (Example 7)
From the text: Also, the dosage of both compounds was increased to 1.5 mmol for each treatment.

[7] = porcine liver CES, 37° C., enzyme 0.5 mg/mL for prodrugs
[8] = porcine liver CES, 37° C., enzyme 0.5 mg/mL for prodrugs, 0.005 mg/ml for Capecitabine
[9] = in excess water, RT (25° C.), SAXS
[10] = in excess water with 2.3% F127 and 4.87% Ethanol, SAXS, 37° C.

Row | Molecule | Specific Activity (SA) at time t = 24 h [1, 7] | Specific Activity (SA) at time t = 1 h [1, 8] [µmol/min/mg] | Specific Activity (SA) at time t = 2 h [1, 8] [µmol/min/mg] | Specific Activity (SA) at time t = 6 h [1, 8] [µmol/min/mg] | mean (average) particle size [2] [nm] | Average Particle size [2] [nm] | Lyotropic phase behaviour [3] | temperature at which decomposition starts (TGA) [4] | SA relative to 5-FCPal [1] | Specific Activity (SA) at time t = 12 h [1, 7] | particle size distribution [2] | lyotropic phase behaviour in water penetration scans [3] | Lattice parameter ([3]; in excess water, 37° C., SAXS) | Lattice parameter [3, 9] | tumours from animals sacrificed at 17 days (images) ([6]; FIG. 19) | phase in excess water ([3]; physiological temperatures) | other results
1 | 5′-deoxy-5-fluoro-N^4-(cis-9,cis-12-octadecenyl-1-oxycarbonyl)cytidine [Prodrug 5-FCLeo] | – | – | – | – | – | – | – | – | – | – | – | – | – | – | – | fluid isotropic phase | phase at limited hydration ([3]; limited hydration, physiological temperatures): inverse phases
2 | 5′-deoxy-5-fluoro-N^4-(octadecyl-1-oxycarbonyl)cytidine [Prodrug 5-FCSte] | – | – | – | – | – | – | – | – | – | – | – | – | – | – | – | lamellar phases | –
3 | CCCCCCCC/C=C\CCCCCCCCOC(=O)Nc1nc(=O)n(C2OC(C)C(O)C2O)cc1F (stereo not drawn) [Prodrug 5-FCOle, 5′-deoxy-5-fluoro-N^4-(cis-9-octadecenyl-1-oxycarbonyl)cytidine] | – | 4.97 | 3.7 | 2.24 | 255 | 261 | Cubosome | 123 °C | ~10 times | 2.37 | 150-500 nm | traditional lamellar (L[…]) phase at room temperature and 3D cubic (Pn3m) phase at elevated temperatures above 33 °C | 37 °C Pn3m: 10.40 nm | 25 °C Lα: 6.01 nm | significantly smaller tumours | – | Lattice parameter [3, 10]: 37 °C Pn3m: 9.10 nm; Phases [3, 10]: Pn3m; Phases ([3]; in excess water, 37° C., SAXS): 37 °C Pn3m; Phases [3, 9]: RT: Lα; Phases ([3]; neat, SAXS, 25, 37° C.): Smectic; Lattice parameter ([3]; neat, SAXS, 25° C.): 25° C.: 2.99 nm; Lattice parameter ([3]; neat, SAXS, 37° C.): 37° C.: 3.00 nm; Lattice parameter ([3]; neat, XRD, 25° C.): 2.977 nm; Phases ([3]; neat, XRD, 25° C.): Smectic; average 4T1 tumour volume by day 17 ([6]; 1.5 mmol for each treatment, daily for 17 days): significantly smaller tumour volumes; spleens from animals sacrificed at 17 days (images) ([6]; FIG. 19): normal spleens; time for tumours to reach a similar size as the other treatment groups after treatment was stopped ([6]; treatment stopped on day 17): a full week

More lines, main results first:

Row | Specific Activity (SA) at time t = 24 h [1, 7] | Specific Activity (SA) at time t = 1 h [1, 8] [µmol/min/mg] | Specific Activity (SA) at time t = 2 h [1, 8] [µmol/min/mg] | Specific Activity (SA) at time t = 6 h [1, 8] [µmol/min/mg] | mean (average) particle size [2] [nm] | Average Particle size [2] [nm] | Lyotropic phase behaviour [3] | temperature at which decomposition starts (TGA) [4] | Molecule | SA relative to 5-FCPal [1] | Specific Activity (SA) at time t = 12 h [1, 7] | particle size distribution [2] | lyotropic phase behaviour in water penetration scans [3] | Lattice parameter ([3]; in excess water, 37° C., SAXS) | Lattice parameter [3, 9] | tumours from animals sacrificed at 17 days (images) ([6]; FIG. 19) | phase in excess water ([3]; physiological temperatures) | other results
4 | 1.15 µmol/min/mg | 1.03 | 1.3 | 0.67 | 164 | 219 | Hexosome | 95 °C | 5′-deoxy-5-fluoro-N^4-(3,7,11,15-tetramethyl-hexadecyl-1-oxycarbonyl)cytidine [Prodrug 5-FCPhy] | about 4 times | 0.89 µmol/min/mg | 100-300 nm | 3D inversed bicontinous cubic phase (Pn3m space group) initially and then transform to 2D hexagonal phase | 5.60 nm | RT: H2(5.82 nm) | significantly smaller tumours | – | Phases ([3]; without water, RT, 37° C., equilibrated): Amorphous; overall tumour volume at day 21 ([5]; 4T1 tumour, oral daily, day 21): second smallest overall tumour volume; behaviour and appearance of the treated mice ([5]; 4T1 tumour-bearing BALB/c mice, oral daily for 21 days): active and healthy; spleens from animals sacrificed at 17 days (images) ([6]; mouse, in vivo): normal spleens
5 | – | 733 | 717 | 598 | – | – | – | – | CCCCCOC(=O)Nc1nc(=O)n([C@@H]2O[C@H](C)[C@@H](O)[C@H]2O)cc1F [Capecitabine, reference compound] | – | – | – | – | – | – | – | – | time to hydrolysis to 5-FC ([1]; 5 mg/ml and 0.5 mg/ml enzyme concentration): ≤ 30 min; enzyme activities (SA) ([1]; obtained from three enzymatic concentrations): 600-900 μmol/min/mg enzyme; Specific Activity (SA) at time t = 0.5 h [1, 8]: 933 µmol/min/mg
6 | 0.27 µmol/mL | 0.3 | 0.38 | 0.33 | 700 | 661 | Solid lipid | approximately 120 °C | CCCCCCCCCCCCCCCCOC(=O)Nc1nc(=O)n([C@@H]2O[C@H](C)[C@@H](O)[C@H]2O)cc1F [Prodrug 5-FCPal, 5′-deoxy-5-fluoro-N^4-(hexadecyl-1-oxycarbonyl)cytidine] | – | – | – | did not swell | – | – | – | – | time over which hydrolysis continued towards full conversion ([1]; CES 0.5 mg/mL, 37° C.): more than 7 days; Phases ([3]; in excess water, equilibration @ RT 7 Days, RT, 37, 50° C.): Lamellar; d-spacing ([3]; in excess water, equilibration @ RT 7 Days, RT): (2.86 nm); Phases ([3]; without water, RT, 37, 50, 70, 90° C., SAXS confirmed with XRD): Lamellar; d-spacing ([3]; without water, RT): (2.87 nm)
